Assay results from publication PMC2904697, “A Screen for Kinetochore-Microtubule Interaction Inhibitors Identifies Novel Antitubulin Compounds” (PLoS ONE, 2010).

Tested on: recombinant CLIP-170^488 binding to taxol-stabilized MTs
Test: CLIP-170^488 binding to taxol-stabilized MTs (specificity control)
Details: compound B at 50 µmol/l
Description: Figure 2 Compound B prevents the recombinant Ndc80 kinetochore complex from binding to taxol-stabilized microtubules. Effect of compound B (50 µmol/l) on binding of the Ndc80^488 complex to rhodamine-labeled, taxol-stabilized MTs as assayed using inverted wide-field fluorescence microscopy. The scale bar represents 4 µm (A). Structure of compound B; 6-furan-2-yl-3-methyl-4-oxo-4,5,6,7-tetrahydro-1H-indole-2-carboxylic acid (tetrahydro-furan-2-yl)methyl ester (B). Measurement of the IC50 value of compound B using total internal reflection fluorescence microscopy. The scale bar represents 4 µm (C). Compound B (50 µmol/l) prevented MT-associating protein CLIP-170^488, used as a specificity control, from binding to taxol-stabilized MTs. The scale bar represents 4 µm (D). […] The scale bar represents 4 µm (E).
A compound inhibiting the Ndc80^488 complex-MT interaction could act either against the complex or against the MTs. To probe the specificity of compound B toward the Ndc80^488 complex, we examined its ability to inhibit MT binding of recombinant CLIP-170^488, a MT plus-end tracking protein.

- Effect on binding of CLIP-170^488 to taxol-stabilized MTs: prevented
SMILES: Cc1c(C(=O)OCC2CCCO2)[nH]c2c1C(=O)CC(c1ccco1)C2 (stereo not shown) [compound B, 6-furan-2-yl-3-methyl-4-oxo-4,5,6,7,-tetrahydro-1H-indole-2-carboxylic acid tetrahydro-furan-2-ylmethyl ester]
